This assay concerns the target T1, polyisoprenylated methylated protein methyl esterase (PMPMEase) (Sus scrofa, UniProt Q29550).
T1 construct: purified PMPMEase
T1 sequence (Q29550 19-566): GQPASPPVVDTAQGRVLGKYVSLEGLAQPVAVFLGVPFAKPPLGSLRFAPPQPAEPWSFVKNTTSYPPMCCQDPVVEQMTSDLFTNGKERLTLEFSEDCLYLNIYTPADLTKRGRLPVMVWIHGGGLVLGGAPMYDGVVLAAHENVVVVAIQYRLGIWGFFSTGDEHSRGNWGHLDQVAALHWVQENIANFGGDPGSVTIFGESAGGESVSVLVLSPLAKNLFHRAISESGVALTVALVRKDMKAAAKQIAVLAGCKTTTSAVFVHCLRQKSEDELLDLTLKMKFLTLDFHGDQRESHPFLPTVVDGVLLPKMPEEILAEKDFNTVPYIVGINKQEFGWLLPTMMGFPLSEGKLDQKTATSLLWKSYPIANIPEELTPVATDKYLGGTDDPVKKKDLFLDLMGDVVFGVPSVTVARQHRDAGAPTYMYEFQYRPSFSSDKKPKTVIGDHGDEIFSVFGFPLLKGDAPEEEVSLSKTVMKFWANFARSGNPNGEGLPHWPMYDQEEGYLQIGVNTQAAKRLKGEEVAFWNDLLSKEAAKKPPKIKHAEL
Put plainly: RP-HPLC assay of RD-PNB hydrolysis by purified enzyme; Michaelis-Menten kinetics; reversibility by gel filtration. The format is biochemical. For orientation: Size exclusion chromatography separates by hydrodynamic size, large species first.

The Ki is a dissociation constant, usually derived from enzyme kinetics or from competition with a known ligand. Higher therefore signals a looser hold on the target.

`COc1cc(/C=C/C(=O)CC(=O)/C=C/c2ccc(O)c(OC)c2)ccc1O` [curcumin] registered a Ki of 310 nM.

The values are drawn from paper PMC3713324, “Polyisoprenylated Methylated Protein Methyl Esterase Is Both Sensitive to Curcumin and Overexpressed in Colorectal Cancer: Implications for Chemoprevention and Treatment” (BioMed Research International, 2013).
